Test results from patent publication US20030216327A1, “Sapogenin-based treatment” (L'OREAL, priority 2002, published 2003).

System: immortalized human sebocytes derived from the SZ95 line
Test: Lipid production by immortalized human sebocytes in culture (Nile Red fluorescence)
Format: cell-based
Conditions: treatment for two days; for VARIATION IN LIPIDS (compared to control): total lipids (neutral + non-neutral), Nile Red, 0.1% DMSO
Procedure: Hecogenin and diosgenin, provided by SIGMA, were tested on a model of immortalized human sebocytes in culture, derived from the SZ95 line described in C. C. Zouboulis, H. Seltmann, H. Neitzel & C. E. Orfanos, Establishment and Characterization of an Immortalized Human Sebaceous Gland Cell Line, J. Invest. Dermatol., 113, 1011-1020 (1999).
The test consisted in measuring the amount of lipids produced by the sebocytes of the line (at confluency), in the presence or absence of active agents, diluted in DMSO such that the final amount of DMSO in the culture medium is 0.1%. After treatment for two days, the adherent cells are treated with Nile Red (1 μg/ml). The lipid content is then quantified by measuring the fluorescence of the dye (two excitation/emission couples: 485-540 nm for the neutral lipids and 540-620 nm for the non-neutral lipids). The results are given for the total lipids (combination of the two measurements).
The experiment was carried out in triplicate (assay products and control) in a 96-well plate and repeated three times.

| Structure (SMILES) | VARIATION IN LIPIDS (compared to control) (0.1 μM) | activity on lipid content (lipogenesis) (0.1 μM, same test, total lipids) | increase in the lipid content of the sebum (10 μM, same test, total lipids) [%] |
| --- | --- | --- | --- |
| C[C@@H]1CC[C@@]2(OC1)O[C@H]1C[C@H]3[C@@H]4CC[C@@]5(C)C[C@@H](O)CC[C@]5(C)[C@H]4CC(=O)[C@]3(C)[C@H]1[C@@H]2C [Hecogenin] | +5% | – | – |
| C[C@]12CC[C@H](O)CC1=CC[C@@H]1[C@@H]2CC[C@]2(C)C(=O)CC[C@@H]12 [DHEA] | – | inactive | 13 |
| C[C@@H]1CC[C@@]2(OC1)O[C@H]1C[C@H]3[C@@H]4CC=C5C[C@@H](O)CC[C@]5(C)[C@H]4CC[C@]3(C)[C@H]1[C@@H]2C [Diosgenin] | +4% | – | – |
